Here are results for one compound from ChEMBL document CHEMBL5113453, “Design, synthesis, and biological evaluation of a new series of pyrazole derivatives: Discovery of potent and selective JNK3 kinase inhibitors” (Bioorg Med Chem, 2022).

Test [1] has as its system RPMI-8226. As to the kind of experiment: Induction of necrosis in human RPMI-8226 cells assessed as LDH release at 5.47 uM. It counts as functional.
In test [2] the target is Mitogen-activated protein kinase 9 (Homo sapiens, UniProt P45984). As to the kind of experiment: Inhibition of JNK2-alpha-2 (unknown origin).
Mitogen-activated protein kinase 9, sequence (P45984 whole entry): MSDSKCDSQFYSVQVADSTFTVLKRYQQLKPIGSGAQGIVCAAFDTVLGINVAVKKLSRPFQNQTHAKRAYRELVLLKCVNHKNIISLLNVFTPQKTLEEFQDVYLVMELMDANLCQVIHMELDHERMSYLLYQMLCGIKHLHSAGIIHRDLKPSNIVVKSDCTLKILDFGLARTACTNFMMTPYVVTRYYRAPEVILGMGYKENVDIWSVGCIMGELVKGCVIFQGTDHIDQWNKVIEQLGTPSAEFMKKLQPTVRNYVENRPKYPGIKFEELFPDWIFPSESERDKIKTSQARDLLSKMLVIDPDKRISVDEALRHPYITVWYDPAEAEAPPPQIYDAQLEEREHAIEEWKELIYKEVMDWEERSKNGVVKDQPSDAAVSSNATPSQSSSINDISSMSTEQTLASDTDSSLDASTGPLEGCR

`O=C(NCCCNc1cc(-c2cn(-c3ccccc3)nc2-c2cccc(O)c2)ccn1)Nc1ccc(F)cc1`: the Activity in test [1] amounted to 32.4%. It took 1 µM to reach half-maximal inhibition in test [2] (IC50).
